From patent US20210267978A1, “NANOPARTICLE FORMULATIONS OF IKE AND METHODS OF USE THEREOF” (The Trustees of Columbia University in the City of New York, priority 2018, published 2021)

Tests used:
[1] = test system: SUDHL-6 cells; experiment: Free fatty acid cell survival test with or without IKE (CellTiter-Glo); assay type: cell-based; conditions: for toxicity of free fatty acid to cells: 100 μM, 24 hours; for effect of free fatty acid on IKE-induced ferroptosis: 10 μM fatty acid with IKE
Excerpt: Relative Area Under Curve (AUC) to DMSO cotreatment was used to indicate the sensitization or protection effect of free fatty acids to IKE-induced ferroptosis.

[2] = test system: SUDHL6 cells; experiment: Reduced glutathione measurement in cell culture (Fluorometric-Green); assay type: cell-based; conditions: 10 μM β-ME co-treatment, 24 h
Description: 2.4 million cells were incubated with DMSO, IKE, or β-mercaptoethanol (β-Me) at a density of 0.2 million cells/mL for 24 h. Cells were collected and washed with cold PBS once. Cell number was counted by Vi-Cell. Cells were resuspended in ice cold RIPA buffer (Thermo Fisher Scientific, 89900) with 100 μL/one million cells. Samples were centrifuged for 15 min at 4° C. at 17,000×g. The resulting supernatant was deproteinized using a trichloroacetic acid and sodium bicarbonate solution and kept on ice. The sample was diluted with assay buffer provided in GSH/GSSG Ratio Detection Assay Kit (Abcam, ab13881) ten-fold. Reduced glutathione (GSH) levels were determined using Fluorometric-Green provided in the kit following the manufacture's protocol. 384-well (Corning) low volume black flat bottom polystyrene non-treated microplates 1230F99 were used in this experiment.

[3] = test system: SUDHL6 cells; experiment: qPCR analysis of gene expression in cell culture; assay type: cell-based; conditions: SUDHL6 cells
Description: To perform qPCR analysis in cell culture, DLBCL cells were treated with 0-10 μM IKE, Fer-1, or β-Me for the indicated times. RNA was extracted using the Qiashredder and Qiagen RNeasy Mini kits (Qiagen) according to the manufacture's protocol. 2 μg RNA from each sample was reversed transcribed to cDNA using a High Capacity cDNA Reverse Transcription Kit (Thermo Fisher Scientific, 4368814). Quantitative PCR reactions were performed using Power SYBR Green PCR Master Mix (Applied Biosystems) with triplicate measurement on ViiA 7 Real-Time PCR instrument (Thermo Fischer). HPRT1 was used as an internal reference. Differences in mRNA levels compared with HPRT1 were computed between vehicle and experimental groups using the ΔΔCt method. The primers used in the study were listed below.

[4] = Erastin and IKE solubility measurements (nephelometry); assay type: physicochemical
Description: Solubility measurement samples were prepared in a 96-well Corning Costar plate with two at 1% and 5% DMSO v/v with a total sample volume of 200 μL in MilliQ water. A BMG Labtech NEPHELOstar nephelometer was used to measure turbidity of the samples with the following parameters per the instrument manufacturer: Gain=80, Laser Focus=2.50 mm, and Laser Intensity=90%. Samples were shaken in the nephelometer by orbital shaking for 3 s prior to the turbidity measurement. Sample values were blanked in the instrument software using the corresponding water and DMSO condition values. Turbidity 4000 NTU Calibration Standard-Formazin (Millipore-Sigma) was used as a positive control for all turbidity measurements. The turbidity of each sample was measured within 20 minutes of initial preparation. After the initial measurement, the sample plates were covered with aluminum sealing film and allowed to sit overnight at room temperature prior to re-measuring.

[5] = test system: GSH; conditions: Narang et al., 2007; Lo et al., 2010; cited from earlier work
[6] = test system: SUDHL6 cells; experiment: C-11 BODIPY lipid peroxidation measurement (flow cytometry); assay type: cell-based; conditions: 10 μM fer-1 co-treatment
Description: 0.20 million SUDHL-6 cells were seeded in sixc^− well plates and treated with DMSO, IKE, or Fer-1 at specific concentration. The final cell density of 0.05 million cells/mL. After 24 h, cells were harvested by centrifuging at 300×g for 5 min. Cells were resuspended in 500 μL HBSS containing 2 μM C11-BODIPY (BODIPY 581/591 C11) (Thermo Fisher Scientific, D3861) and incubated at 37° C. for 15 min. Cells were pelleted and resuspended in HBSS. Fluorescence intensity was measured on the FL1 channel with gating to record live cells only (gate constructed from DMSO treatment group). A minimum of 10,000 cells were analyzed per condition.

[7] = test system: SUDHL 6 cells; experiment: Measurement of IKE PEG-PLGA cellular activity (CellTiter-Glo, 24 h); assay type: cell-based; conditions: fer-1 co-treatment
Description: DLBCL cells or HT-1080 cells were plated at 2,000 cells per well in white 384-well plates (32 μL per well) in technical duplicates and incubated overnight. The cells were then treated with 8 μL medium containing a two-fold dilution series of vehicle 1 (DMSO), IKE, Fer-1, vehicle 2 (unfunctional PEG-PLGA nanoparticles), or IKE PEG-PLGA nanoparticles. The final concentration of IKE in PEG-PLGA nanoparticles were measured by LC-MS as described in the sections below. After 24 h incubation with compounds, 40 μL of 50% CellTiter-Glo (Promega) 50% cell culture medium was added to each well and incubated at room temperature with shaking for 15 min. Luminescence was measured using a Victor X5 plate reader (PerkinElmer). All cell viability data were normalized to the DMSO vehicle condition. Experiments were performed in three independent times with different passages for each cell line.

[8] = test system: DLBCL cell lines; experiment: Fer-1 co-treatment rescue of IKE-induced cell death (CellTiter-Glo); assay type: cell-based; conditions: co-treatment with IKE, 24 hours
Description: The cell viability was measured by co-treating cells with a two-fold series dilution of IKE (starting from 100 μM) and two-fold series dilution of Fer-1 (starting from 200 μM) for 24 hours followed by a Cell Titor-Glo luminescent cell viability test. […] Data are plotted as the mean±s.d., n=2 biologically replicates. Three independent experiments were performed with similar results.
DLBCL cells were plated at 10,000 cells per well in white 384-well plates (32 μL per well) in technical duplicates and incubated overnight. The cells were then treated with 8 μL medium containing a two-fold dilution series of vehicle (DMSO), IKE (starting from 100 μM) with or without Fer-1 (starting from 200 μM). After 24 h incubation, 40 μL of 50% CellTiter-Glo (Promega) 50% cell culture medium was added to each well and incubated at room temperature with shaking for 15 min. Luminescence was measured using a Victor X5 plate reader (PerkinElmer). All cell viability data were normalized to the DMSO vehicle condition. Experiments were performed three independent times with different passages for each cell line.

CCCCC/C=C\C/C=C\C/C=C\C/C=C\CCCC(=O)O [arachidonic acid]
toxicity of free fatty acid to cells [1]: toxic to cells

OCCS [β-ME, β-mercaptoethanol, reference compound]
effect of co-treatment on GSH depletion by IKE [2]: reversed | effect of co-treatment on IKE-induced upregulation of SLC7A11, CHAC1 and PTGS2 mRNAs ([3]; 10 μM β-Me with 500 nM IKE for 6 hours): prevented

CCOc1ccccc1-n1c(C(C)N2CCN(C(=O)COc3ccc(Cl)cc3)CC2)nc2ccccc2c1=O (stereo not shown) [erastin, reference compound]
water solubility (in words) [4]: low water solubility

CCCCCCCC/C=C\CCCCCCCC(=O)O [oleic acid]
effect of free fatty acid on IKE-induced ferroptosis [1]: protected against ferroptosis

O=C(O)c1cc(/N=N/c2ccc(S(=O)(=O)Nc3ccccn3)cc2)ccc1O [sulfasalazine]
IC50 for GSH depletion [5]: millimolar range

CCCCC/C=C\C/C=C\C/C=C\CCCCC(=O)O [γ-linolenic acid]
toxicity of free fatty acid to cells [1]: toxic to cells

CCOC(=O)c1ccc(NC2CCCCC2)c(N)c1 [fer-1, ferrostatin-1, reference compound]
effect of co-treatment on IKE-induced PTGS2 upregulation ([3]; 10 μM Fer-1 with 500 nM IKE for 6 hours): prevented | effect of co-treatment on IKE-induced CHAC1 upregulation ([3]; Fer-1 co-treatment): did not inhibit | effect of co-treatment on IKE-induced lipid ROS signal (C11-BODIPY) [6]: inhibited this signal | effect of co-treatment on cell death induced by IKE and IKE PEG-PLGA NPs [7]: rescued cell death | effect of co-treatment on cell death induced by IKE [8]: rescued cell death

CCCCCC/C=C\CCCCCCCC(=O)O [palmitoleic acid]
effect of free fatty acid on IKE-induced ferroptosis [1]: protected against ferroptosis
